Test system: MV-4-11 cells
Assay: Gene expression microarray analysis (Affymetrix PrimeView) and GSEA
Type: cell-based, human
Parameters: RFU PODN (11730768_x_at) / Fold change /veh PODN (11730768_x_at) / RFU LINC00158 (11744669_a_at) / Fold change /veh LINC00158 (11744669_a_at) / RFU DUSP10 (11751237_a_at) / Fold change /veh DUSP10 (11751237_a_at) / RFU ID3 (11757404_x_at) / Fold change /veh ID3 (11757404_x_at) / RFU PLEKHG5 (11737974_s_at) / Fold change /veh PLEKHG5 (11737974_s_at) / RFU LRRC4B (11730491_at) / Fold change /veh LRRC4B (11730491_at) / RFU GIMAP4 (11747438_a_at) / Fold change /veh GIMAP4 (11747438_a_at) / RFU KRT8 (11758183_x_at) / Fold change /veh KRT8 (11758183_x_at) / RFU CNN1 (11734310_a_at) / Fold change /veh CNN1 (11734310_a_at) / RFU VPS37D (11726825_at) / Fold change /veh VPS37D (11726825_at) / RFU C10orf10 (11716522_x_at) / Fold change /veh C10orf10 (11716522_x_at) / RFU KIR2DL2 /// KIR2DL4 /// KIR2DL5A /// KIR2DL5B /// KIR2DS1 /// KIR2DS2 /// KIR2DS3 /// KIR2DS4 /// KIR3DL3 /// KIR3DL3 /// KIR3DS1 (11738374_at) / Fold change /veh KIR2DL2 /// KIR2DL4 /// KIR2DL5A /// KIR2DL5B /// KIR2DS1 /// KIR2DS2 /// KIR2DS3 /// KIR2DS4 /// KIR3DL3 /// KIR3DL3 /// KIR3DS1 (11738374_at) / RFU C1QL1 (11718748_at) / Fold change /veh C1QL1 (11718748_at) / RFU TMPRSS4 (11747572_a_at) / Fold change /veh TMPRSS4 (11747572_a_at) / RFU HAMP (11756126_x_at) / Fold change /veh HAMP (11756126_x_at) / RFU RNFT2 (11725882_a_at) / Fold change /veh RNFT2 (11725882_a_at) / RFU NR4A2 (11747474_a_at) / Fold change /veh NR4A2 (11747474_a_at) / RFU ABCC12 (11746883_a_at) / Fold change /veh ABCC12 (11746883_a_at) / RFU TMEM136 (11760407_x_at) / Fold change /veh TMEM136 (11760407_x_at) / RFU CLDN22 /// WWC2 (11732394_at) / Fold change /veh CLDN22 /// WWC2 (11732394_at) / RFU HLA-DPB1 (11760878_x_at) / Fold change /veh HLA-DPB1 (11760878_x_at) / RFU SPINT1 (11716480_a_at) / Fold change /veh SPINT1 (11716480_a_at) / RFU GAP43 (11754022_s_at) / Fold change /veh GAP43 (11754022_s_at) / RFU A4GNT (11735810_at) / Fold change /veh A4GNT (11735810_at) / RFU PRB3 (11715151_x_at) / Fold change /veh PRB3 (11715151_x_at) / RFU TUBB4B (11761932_at) / Fold change /veh TUBB4B (11761932_at) / RFU CAPN14 (11732068_a_at) / Fold change /veh CAPN14 (11732068_a_at) / RFU TMCC2 (11721928_a_at) / Fold change /veh TMCC2 (11721928_a_at) / RFU IRGQ (11745062_a_at) / Fold change /veh IRGQ (11745062_a_at) / RFU FAM174B (11720279_a_at) / Fold change /veh FAM174B (11720279_a_at) / RFU TMPRSS4 (11748680_a_at) / Fold change /veh TMPRSS4 (11748680_a_at) / RFU FAM212B (11763350_a_at) / Fold change /veh FAM212B (11763350_a_at) / RFU PLEKHG5 (11743358_a_at) / Fold change /veh PLEKHG5 (11743358_a_at) / RFU ZSCAN30 (11745921_a_at) / Fold change /veh ZSCAN30 (11745921_a_at) / RFU CMKLR1 (11741424_a_at) / Fold change /veh CMKLR1 (11741424_a_at) / RFU LOC101060620 /// MAPK8IP1 (11723275_at) / Fold change /veh LOC101060620 /// MAPK8IP1 (11723275_at) / RFU SPTSSB (11747773_x_at) / Fold change /veh SPTSSB (11747773_x_at) / RFU PRSS12 (11739890_at) / Fold change /veh PRSS12 (11739890_at) / RFU BIN1 (11741810_x_at) / Fold change /veh BIN1 (11741810_x_at) / RFU WNT11 (11732464_a_at) / Fold change /veh WNT11 (11732464_a_at) / RFU C10orf10 (11716521_a_at) / Fold change /veh C10orf10 (11716521_a_at) / RFU C5orf56 (11738089_at) / Fold change /veh C5orf56 (11738089_at) / RFU CYB561 (11721691_x_at) / Fold change /veh CYB561 (11721691_x_at) / RFU ANKRD19P (11752326_a_at) / Fold change /veh ANKRD19P (11752326_a_at) / RFU OR2T12 /// OR2T33 /// OR2T8 (11738714_s_at) / Fold change /veh OR2T12 /// OR2T33 /// OR2T8 (11738714_s_at) / RFU VCAN (11748164_a_at) / Fold change /veh VCAN (11748164_a_at) / RFU JSRP1 (11732532_at) / Fold change /veh JSRP1 (11732532_at) / RFU KRTAP10-11 (11738290_x_at) / Fold change /veh KRTAP10-11 (11738290_x_at) / RFU MYO3A (11730013_a_at) / Fold change /veh MYO3A (11730013_a_at) / RFU EBF3 (11725865_a_at) / Fold change /veh EBF3 (11725865_a_at) / RFU CAMK2N1 (11719241_x_at) / Fold change /veh CAMK2N1 (11719241_x_at) / RFU C5orf56 (11738088_a_at) / Fold change /veh C5orf56 (11738088_a_at) / RFU OLFML3 (11715873_a_at) / Fold change /veh OLFML3 (11715873_a_at) / RFU LOC100653217 /// NTM (11731650_a_at) / Fold change /veh LOC100653217 /// NTM (11731650_a_at) / RFU MAPK11 (11762145_a_at) / Fold change /veh MAPK11 (11762145_a_at) / RFU FIZ1 (11724087_x_at) / Fold change /veh FIZ1 (11724087_x_at) / RFU OASL (11726364_x_at) / Fold change /veh OASL (11726364_x_at) / RFU SOX15 (11748057_x_at) / Fold change /veh SOX15 (11748057_x_at) / RFU CD79A (11719716_a_at) / Fold change /veh CD79A (11719716_a_at) / RFU HIST1H1D (11736915_at) / Fold change /veh HIST1H1D (11736915_at) / RFU CASKIN2 (11723855_a_at) / Fold change /veh CASKIN2 (11723855_a_at) / RFU LOC730098 (11760151_x_at) / Fold change /veh LOC730098 (11760151_x_at) / RFU OR4N2 (11742367_at) / Fold change /veh OR4N2 (11742367_at) / RFU PRRT2 (11749266_a_at) / Fold change /veh PRRT2 (11749266_a_at) / RFU SNX32 (11753110_a_at) / Fold change /veh SNX32 (11753110_a_at) / RFU CDHR5 (11726645_a_at) / Fold change /veh CDHR5 (11726645_a_at) / RFU RCAN1 (11760418_a_at) / Fold change /veh RCAN1 (11760418_a_at) / RFU FAM167A (11723789_a_at) / Fold change /veh FAM167A (11723789_a_at) / RFU FAM26E (11764081_at) / Fold change /veh FAM26E (11764081_at) / RFU ISYNA1 (11749810_s_at) / Fold change /veh ISYNA1 (11749810_s_at) / RFU ACY1 (11761880_at) / Fold change /veh ACY1 (11761880_at) / RFU 11764098_at / Fold change /veh 11764098_at / RFU SAMD14 (11745864_x_at) / Fold change /veh SAMD14 (11745864_x_at) / RFU NPB (11741838_a_at) / Fold change /veh NPB (11741838_a_at) / RFU TMPRSS6 (11731388_a_at) / Fold change /veh TMPRSS6 (11731388_a_at) / RFU KRTAP10-2 (11738614_at) / Fold change /veh KRTAP10-2 (11738614_at) / RFU ARHGAP8 /// PRR5-ARHGAP8 (11727945_x_at) / Fold change /veh ARHGAP8 /// PRR5-ARHGAP8 (11727945_x_at) / RFU KRTAP5-7 /// NADSYN1 (11734609_at) / Fold change /veh KRTAP5-7 /// NADSYN1 (11734609_at) / RFU RASL12 (11751679_a_at) / Fold change /veh RASL12 (11751679_a_at) / RFU CDKN2B (11736163_a_at) / Fold change /veh CDKN2B (11736163_a_at) / RFU PRF1 (11729649_at) / Fold change /veh PRF1 (11729649_at) / RFU, ZNF638 /// ZNF638-IT1 / Fold change vs veh, ZNF638 /// ZNF638-IT1 / RFU, PANK3 / Fold change vs veh, PANK3 / RFU, SH3YL1 / Fold change vs veh, SH3YL1 / RFU, ZEB2 / Fold change vs veh, ZEB2 / RFU, NRIP1 / Fold change vs veh, NRIP1 / RFU, PTTG1IP / Fold change vs veh, PTTG1IP / RFU, CAPN2 / Fold change vs veh, CAPN2 / RFU, MED14 / Fold change vs veh, MED14 / RFU, SNORA58 / Fold change vs veh, SNORA58 / RFU, C1orf63 / Fold change vs veh, C1orf63 / RFU, LRRFIP1 / Fold change vs veh, LRRFIP1 / RFU, NDUFAF7 / Fold change vs veh, NDUFAF7 / RFU, SLC12A2 / Fold change vs veh, SLC12A2 / RFU, IBTK / Fold change vs veh, IBTK / RFU, ESF1 / Fold change vs veh, ESF1 / Fold change vs veh, TMEM50B / RFU, TAOK1 / Fold change vs veh, TAOK1 / RFU, ACBD3 / Fold change vs veh, ACBD3 / RFU, TMA16 / Fold change vs veh, TMA16 / RFU, RWDD3 / Fold change vs veh, RWDD3 / RFU, BCAT1 / Fold change vs veh, BCAT1 / RFU, EDEM3 / Fold change vs veh, EDEM3 / RFU, TMEM33 / Fold change vs veh, TMEM33 / RFU, WDR75 / Fold change vs veh, WDR75 / RFU, AHCTF1 / Fold change vs veh, AHCTF1 / RFU, TFRC / Fold change vs veh, TFRC / RFU, ZDHHC17 / Fold change vs veh, ZDHHC17 / RFU, NOM1 / Fold change vs veh, NOM1 / RFU, ARL8B / Fold change vs veh, ARL8B / RFU, ZBTB11 / Fold change vs veh, ZBTB11 / RFU, TAMM41 / Fold change vs veh, TAMM41 / RFU, KIAA1704 /// LOC100996395 / Fold change vs veh, KIAA1704 /// LOC100996395 / RFU, ING1 / Fold change vs veh, ING1 / RFU, TRMT61B / Fold change vs veh, TRMT61B / RFU, FUBP3 / Fold change vs veh, FUBP3 / RFU, TP53 / Fold change vs veh, TP53 / RFU, TNKS2 / Fold change vs veh, TNKS2 / RFU, ZFP14 / Fold change vs veh, ZFP14 / RFU, ACTR2 / Fold change vs veh, ACTR2 / RFU, PPP3R1 / Fold change vs veh, PPP3R1 / RFU, PIK3R1 / Fold change vs veh, PIK3R1 / RFU, HNRNPA1 / Fold change vs veh, HNRNPA1 / RFU, RNF170 / Fold change vs veh, RNF170 / RFU, ZNF28 / Fold change vs veh, ZNF28 / RFU, RNGTT / Fold change vs veh, RNGTT / RFU, OGT / Fold change vs veh, OGT / RFU, BRD1 / Fold change vs veh, BRD1 / RFU, MARS / Fold change vs veh, MARS / RFU, ZNF655 / Fold change vs veh, ZNF655 / RFU, FAHD1 / Fold change vs veh, FAHD1 / RFU, BDP1 / Fold change vs veh, BDP1 / RFU, LRRCC1 / Fold change vs veh, LRRCC1 / RFU, ARID1A / Fold change vs veh, ARID1A / RFU, ZNF146 / Fold change vs veh, ZNF146 / RFU, ZNF330 / Fold change vs veh, ZNF330 / RFU, GPN3 / Fold change vs veh, GPN3 / RFU, C9orf123 / Fold change vs veh, C9orf123 / RFU, N4BP2L2 / Fold change vs veh, N4BP2L2 / RFU, ARFIP1 / Fold change vs veh, ARFIP1 / RFU, FAM179B / Fold change vs veh, FAM179B / RFU, BCL10 / Fold change vs veh, BCL10 / RFU, UHRF1BP1L / Fold change vs veh, UHRF1BP1L / RFU, BET1 / Fold change vs veh, BET1 / RFU, CNOT2 / Fold change vs veh, CNOT2 / RFU, ZNF268 / Fold change vs veh, ZNF268 / Fold change vs veh, ZNF507 / RFU, DGCR2 / Fold change vs veh, DGCR2 / RFU, WDSUB1 / Fold change vs veh, WDSUB1 / Fold change vs veh, HSP90B1 /// MIR3652 / RFU, ADSS / Fold change vs veh, ADSS / RFU, GK / Fold change vs veh, GK / RFU, ZNF148 / Fold change vs veh, ZNF148 / RFU, TAF9 / Fold change vs veh, TAF9 / RFU, SLC1A5 / Fold change vs veh, SLC1A5 / RFU, SLMO2 / Fold change vs veh, SLMO2 / RFU, ABCC4 / Fold change vs veh, ABCC4 / RFU, LOC101060439 /// RAP1B / Fold change vs veh, LOC101060439 /// RAP1B / RFU, RFX7 / Fold change vs veh, RFX7 / RFU, GTPBP10 / Fold change vs veh, GTPBP10 / RFU, CNEP1R1 / Fold change vs veh, CNEP1R1 / RFU, BIVM-ERCC5 /// ERCC5 / Fold change vs veh, BIVM-ERCC5 /// ERCC5 / RFU, ILF3 / Fold change vs veh, ILF3 / RFU 11762660_at / Fold change /veh 11762660_at / RFU VCAN (11757783_s_at) / Fold change /veh VCAN (11757783_s_at) / RFU DDX43 (11728927_at) / Fold change /veh DDX43 (11728927_at) / RFU KRT8 (11758188_x_at) / Fold change /veh KRT8 (11758188_x_at) / RFU NKD1 (11759106_at) / Fold change /veh NKD1 (11759106_at) / RFU SRD5A1 (11742802_a_at) / Fold change /veh SRD5A1 (11742802_a_at) / RFU TPSAB1 /// TPSB2 (11721975_s_at) / Fold change /veh TPSAB1 /// TPSB2 (11721975_s_at) / RFU GSTM3 (11746129_a_at) / Fold change /veh GSTM3 (11746129_a_at) / RFU IL23R (11737362_x_at) / Fold change /veh IL23R (11737362_x_at) / RFU TMEM51 (11727254_a_at) / Fold change /veh TMEM51 (11727254_a_at) / RFU PIWIL2 (11732686_x_at) / Fold change /veh PIWIL2 (11732686_x_at) / RFU ORM1 (11744905_x_at) / Fold change /veh ORM1 (11744905_x_at) / RFU CCDC152 (11743942_at) / Fold change /veh CCDC152 (11743942_at) / RFU ECM1 (11717891_a_at) / Fold change /veh ECM1 (11717891_a_at) / RFU IL23R (11748794_a_at) / Fold change /veh IL23R (11748794_a_at) / RFU TNFAIP8L3 (11732012_x_at) / Fold change /veh TNFAIP8L3 (11732012_x_at) / RFU MBOAT4 (11741988_at) / Fold change /veh MBOAT4 (11741988_at) / RFU 11764193_at / Fold change /veh 11764193_at / RFU TMEM53 (11763286_at) / Fold change /veh TMEM53 (11763286_at) / RFU MAGEB2 (11727129_at) / Fold change /veh MAGEB2 (11727129_at) / RFU TMEM200A (11744735_a_at) / Fold change /veh TMEM200A (11744735_a_at) / RFU CCDC152 (11751479_a_at) / Fold change /veh CCDC152 (11751479_a_at) / RFU FAM211A (11726209_a_at) / Fold change /veh FAM211A (11726209_a_at) / RFU RGS16 (11746705_a_at) / Fold change /veh RGS16 (11746705_a_at) / RFU VCAN (11755009_s_at) / Fold change /veh VCAN (11755009_s_at) / RFU RHOB (11743442_s_at) / Fold change /veh RHOB (11743442_s_at) / RFU RGS16 (11720943_a_at) / Fold change /veh RGS16 (11720943_a_at) / RFU RGS16 (11720944_at) / Fold change /veh RGS16 (11720944_at) / RFU, VPS4B / Fold change vs veh, VPS4B / RFU, CREB1 / Fold change vs veh, CREB1 / RFU, DNAJC13 / Fold change vs veh, DNAJC13 / RFU, GNAQ / Fold change vs veh, GNAQ / RFU, CDK5R1 / Fold change vs veh, CDK5R1 / RFU, ZRANB3 / Fold change vs veh, ZRANB3 / RFU, CUL4A / Fold change vs veh, CUL4A / RFU, CCNY / Fold change vs veh, CCNY / RFU, UFL1 / Fold change vs veh, UFL1 / RFU, COG3 / Fold change vs veh, COG3 / RFU, DIAPH2 / Fold change vs veh, DIAPH2 / RFU, SKA2 / Fold change vs veh, SKA2 / RFU, AFF3 / Fold change vs veh, AFF3 / RFU, LMF1 / Fold change vs veh, LMF1 / RFU, IPO11 / Fold change vs veh, IPO11 / RFU, DFFB / Fold change vs veh, DFFB / RFU, FOXP1 / Fold change vs veh, FOXP1 / RFU, CARD8 / Fold change vs veh, CARD8 / RFU, STRN3 / Fold change vs veh, STRN3 / RFU, ADK / Fold change vs veh, ADK / RFU, RASSF2 / Fold change vs veh, RASSF2 / RFU, WIPF1 / Fold change vs veh, WIPF1 / RFU, LARP1B / Fold change vs veh, LARP1B / RFU, RASA1 / Fold change vs veh, RASA1 / RFU, RB1 / Fold change vs veh, RB1 / RFU, PPFIA1 / Fold change vs veh, PPFIA1 / RFU, MAT2A / Fold change vs veh, MAT2A / RFU, CCT5 / Fold change vs veh, CCT5 / RFU, WDR92 / Fold change vs veh, WDR92 / RFU, CUX1 / Fold change vs veh, CUX1 / RFU, TTC7A / Fold change vs veh, TTC7A / RFU, TMEM135 / Fold change vs veh, TMEM135 / RFU, DEPTOR / Fold change vs veh, DEPTOR / RFU, CPM / Fold change vs veh, CPM / RFU, DNAJB6 / Fold change vs veh, DNAJB6 / RFU, CACNA2D3 / Fold change vs veh, CACNA2D3 / RFU, DTX4 / Fold change vs veh, DTX4 / RFU, TFCP2 / Fold change vs veh, TFCP2 / RFU, GMCL1 /// GMCL1P1 / Fold change vs veh, GMCL1 /// GMCL1P1 / RFU, AEBP2 / Fold change vs veh, AEBP2 / RFU, SNHG1 /// SNORD22 /// SNORD25 /// SNORD26 /// SNORD27 /// SNORD28 /// SNORD29 /// SNORD31 / Fold change vs veh, SNHG1 /// SNORD22 /// SNORD25 /// SNORD26 /// SNORD27 /// SNORD28 /// SNORD29 /// SNORD31 / Fold change (Aza/veh), C12orf56 (ProbeSet 11735607_a_at) / Fold change (ACY-1035/veh), C12orf56 (ProbeSet 11735607_a_at) / Fold change (Aza/veh), FGFR1OP (ProbeSet 11751329_s_at) / Fold change (ACY-1035/veh), FGFR1OP (ProbeSet 11751329_s_at) / Fold change (Aza/veh), VPS36 (ProbeSet 11739960_a_at) / Fold change (ACY-1035/veh), VPS36 (ProbeSet 11739960_a_at) / RFU SYPL1 (11715823_x_at) / Fold change /veh SYPL1 (11715823_x_at) / RFU IGFBP7 (11715501_s_at) / Fold change /veh IGFBP7 (11715501_s_at) / RFU REEP3 (11722064_at) / Fold change /veh REEP3 (11722064_at) / RFU IGLL1 (11728026_x_at) / Fold change /veh IGLL1 (11728026_x_at): dose or concentration left out as unconfirmed
Conditions: ProbeSet 11716999_a_at; LIST D

In the case of Nc1ccc(-c2cccs2)cc1NC(=O)c1ccc2c(c1)cc(C1CC1)n2CCN1CCOCC1 [ACY-1035], the “RFU, RASA1” value is reported as 200.63 RFU.
